From patent US7781565B2 (priority 2006, dated 2010)
Entries after “also recorded” stand apart in the source; their conditions may differ.

What follows are substances tested on NCI-60 cell lines.
Assay type: cell-based, human

Substance | Cell Line the peptide is associated with (peptide recovered from phage library selection on this NCI-60 cell line) | Cell Line with which the peptide (and its tripeptide motif) is associated | Cell Line (NCI-60 cell line the peptide is associated with) | Cell Line (NCI-60 cell line the peptide and its motif are associated with)
AGGPSSY | UO31 Renal |  |  | 
AGGPTKY |  | SR Leukemia |  | 
AGGQSER |  | H226-Lung |  | 
AGGRLGL |  |  | SF-268 CNS | 
AGGRWNL |  |  | HT-29 Colon | 
AGGSLGS |  | H23-Lung |  | 
AGGTDRT | MDA-MB-231 Breast |  |  | 
AGGVRDL |  |  |  | PC3 Prostate
AGGWRGR |  |  | SF-268 CNS | 
AGGWWVG |  |  | HCT-15 Colon | 
AGIARGG |  | Hop-92-Lung |  | 
AGLALTV |  |  | MALME-3M Melanoma | 
AGLEDLG | RXF393 Renal |  |  | 
AGLGHEG |  | H23-Lung |  | 
AGLGLLD |  |  |  | SK-OV-3-3 Ovarian
AGLLSDV | NCI/ADR-RES Breast |  |  | 
AGLPHRF | UO31 Renal |  |  | 
AGLQHAV |  |  | HCT-15 Colon | 
AGLSGGT |  | EKVX-Lung |  | 
AGLSGSQ |  | RPMI-8226-Leukemia |  | 
AGLTIGI |  |  | SNB-19 CNS; also recorded: SF-539 CNS | 
AGLWPWN | CAIK-1 Renal |  |  | 
AGPSAWL |  | Hop-92-Lung |  | 

Substance | Cell Line the peptide is associated with (peptide recovered from phage library selection on this NCI-60 cell line) | Cell Line with which the peptide (and its tripeptide motif) is associated | Cell Line (NCI-60 cell line the peptide is associated with) | Cell Line (NCI-60 cell line the peptide and its motif are associated with)
AGPSRGP |  |  |  | UACC 257 Melanoma
AGRFGAR |  |  |  | OVCAR-8 Ovarian
AGRGAGG |  |  |  | OVCAR-4 Ovarian
AGRGISQ |  |  |  | UACC62 Melanoma
AGRHLDA | HS 578 T Breast |  |  | 
AGRIASK |  |  | HT-29 Colon | 
AGRICEG |  | CCRF-CEM Leukemia |  | 
AGRPDGV |  |  |  | DU-145 Prostate
AGRPGGY |  |  |  | PC3 Prostate
AGRPRAT |  |  | HCT-116 Colon | 
AGRRFGG |  | EKVX-Lung |  | 
AGRRLRD | NCI/ADR-RES Breast |  |  | 
AGRSCNL |  |  | HCT-116 Colon | 
AGRTGVG |  | SR Leukemia |  | 
AGSAFWA |  |  |  | 786-0 Renal
AGSGFPF |  |  | HT-29 Colon | 
AGSIALR |  | HL-60-Leukemia |  | 
AGSLSVF |  | CCRF-CEM Leukemia |  | 
AGSMMEF |  |  |  | OVCAR-3 Ovarian
AGSPLAK |  | H23-Lung |  | 
AGSQSWE |  | A549-Lung |  | 
AGSVDLV |  |  |  | SK-MEL-5 Melanoma
AGSVTEQ | UO31 Renal |  |  | 

Substance | Cell Line the peptide is associated with (peptide recovered from phage library selection on this NCI-60 cell line) | Cell Line with which the peptide (and its tripeptide motif) is associated | Cell Line (NCI-60 cell line the peptide is associated with) | Cell Line (NCI-60 cell line the peptide and its motif are associated with)
AGSVYSV |  |  |  | OVCAR-5 Ovarian
AGVFAVS |  | HL-60-Leukemia |  | 
AGWRLSQ | CAIK-1 Renal |  |  | 
AHYTLRS |  |  | COLO-205-Colon | 
AIMGAGL |  |  |  | OVCAR-8 Ovarian
AIRAGSD |  | K-562-Leukemia |  | 
AKAGVSR | MCF-7 Breast |  |  | 
AKLGSVY |  | H226-Lung |  | 
ALAGGGL |  |  | SNB-75 CNS | 
ALARGSG |  |  |  | SK-MEL-2 Melanoma
ALNRGSR | MDA-MB-231 Breast |  |  | 
ALPGGGR |  |  |  | OVCAR-5 Ovarian
ALVSFSV |  | EKVX-Lung |  | 
ALVSRRG |  | Molt-4-Leukemia |  | 
ALVSSHV |  |  |  | SK-MEL-2 Melanoma
ALVSTIL | UO31 Renal |  |  | 
ALVSVAG |  |  | SF-295 CNS | 
AMRPGRL |  | RPMI-8226-Leukemia |  | 
ANAASSP |  |  |  | SK-MEL-5 Melanoma
ANASGVR |  |  |  | M14 Melanoma
ANGSSKK | MDA-MB-231 Breast |  |  | 
ANGVLEL |  | Molt-4-Leukemia |  | 
APGRLGP |  |  |  | OVCAR-4 Ovarian

Substance | Cell Line the peptide is associated with (peptide recovered from phage library selection on this NCI-60 cell line) | Cell Line with which the peptide (and its tripeptide motif) is associated | Cell Line (NCI-60 cell line the peptide is associated with) | Cell Line (NCI-60 cell line the peptide and its motif are associated with)
APLRSGR |  | EKVX-Lung |  | 
ARAGSTF |  |  |  | A498 Renal
ARAIGLG |  | Molt-4-Leukemia |  | 
ARAMGLR |  | Hop-62-Lung |  | 
ARGGESA |  |  |  | SK-OV-3-3 Ovarian
ARGIVRV |  |  | SW620-Colon | 
ARGNVRF | MDA-MB-231 Breast |  |  | 
ARGRDEG | UO31 Renal |  |  | 
ARGRGSQ |  |  |  | PC3 Prostate
ARGSLRV |  |  | SNB-19 CNS; also recorded: SF-539 CNS | 
ARGSWRE | TK-10 Renal |  |  | 
ARGTMTG | ACHN Renal |  |  | 
ARGVAEY |  |  | SF-295 CNS | 
ARGVLLM |  | CCRF-CEM Leukemia |  | 
ARGVSAP |  |  | KM-12C Colon | 
ARHGSSV |  |  |  | M14 Melanoma
ARLLRGG |  |  |  | DU-145 Prostate
ARLRASR |  |  |  | PC3 Prostate
ARLSLEL | TK-10 Renal |  |  | 
ARNAASP |  | A549-Lung |  | 
ARRGLGL |  |  | SNB-75 CNS | 
ARRGSGL |  |  | MALME-3M Melanoma | MALME-3M Melanoma
ARRGVLG |  |  | COLO-205-Colon | 

Substance | Cell Line the peptide is associated with (peptide recovered from phage library selection on this NCI-60 cell line) | Cell Line with which the peptide (and its tripeptide motif) is associated | Cell Line (NCI-60 cell line the peptide is associated with) | Cell Line (NCI-60 cell line the peptide and its motif are associated with)
ARSSHRA |  |  | HCT-116 Colon | 
ARSSIVR |  |  | SF-268 CNS | 
ARVGVSP |  | H322-Lung |  | 
ARVSGRV |  | H23-Lung |  | 
ARYSLRS |  |  |  | 786-0 Renal
ASAGAVS |  |  |  | 786-0 Renal
ASAVSGR |  |  | HT-29 Colon | 
ASEGGRA |  |  |  | SK-OV-3-3 Ovarian
ASGLVVT |  |  | SNB-75 CNS | 
ASGRVAN |  |  | HCT-116 Colon | 
ASGTLLR |  |  |  | SK-MEL-28 Melanoma
ASLHHRR |  |  | SW620-Colon | 
ASLPMLH | ACHN Renal |  |  | 
ASLPPRA |  | EKVX-Lung |  | 
ASLPVLD |  |  |  | M14 Melanoma
ASLRYYV |  | SR Leukemia |  | 
ASLSVVI | UO31 Renal |  |  | 
ASLVARN |  |  |  | SK-OV-3-3 Ovarian
ASPPLRS |  |  |  | A498 Renal
ASVRAGR |  | Molt-4-Leukemia |  | 
ASYAGLV |  |  |  | IGROV1 Ovarian
ATGRVLG |  | Molt-4-Leukemia |  | 
ATGSGSV |  |  |  | PC3 Prostate

Substance | Cell Line the peptide is associated with (peptide recovered from phage library selection on this NCI-60 cell line) | Cell Line with which the peptide (and its tripeptide motif) is associated | Cell Line (NCI-60 cell line the peptide is associated with) | Cell Line (NCI-60 cell line the peptide and its motif are associated with)
ATIPGGS |  |  | LOX-IMVI Melanoma | 
ATLDGVS |  |  |  | SK-OV-3-3 Ovarian
AVALGGS |  |  |  | UACC 257 Melanoma
AVDGLRL |  | SR Leukemia |  | 
AVEGRGS |  |  | HCT-116 Colon | 
AVFRASR | CAIK-1 Renal |  |  | 
AVGRGSG |  | Hop-92-Lung |  | 
AVGVSAA | MDA-MB-231 Breast |  |  | 
AVHSGRL | ACHN Renal |  |  | 
AVLVAGG |  | CCRF-CEM Leukemia |  | 
AVRGGRP |  | Hop-92-Lung |  | 
AVRGVAR |  | HL-60-Leukemia |  | 
AVSGRGW |  | Molt-4-Leukemia |  | 
AVSGRSL |  |  |  | M14 Melanoma
AVSKRLP |  | H522-Lung |  | 
AVSLAWQ | T-47D Breast |  |  | 
AVSLVVL |  |  |  | OVCAR-8 Ovarian
AVWGGLG |  | H226-Lung |  | 
